Legend:
[1] = test system: JEG-3 (human placental choriocarcinoma cell line); experiment: Real-time RT-PCR quantification of gene expression in drug-treated JEG-3; assay type: cell-based
Experimental: My IQ Real-Time PCR (Bio-Rad, USA) was performed to quantify the expressions of those genes.
Particularly, cDNA was synthesized using oligo dT primer and Superscript kit (Omniscipt™ kit, Qiagen, Co., USA) by reverse transcription. 0.2 μl of the cDNA, 3.8 μl of water, 0.5 μg of a sense primer, 0.5 μg of an antisense primer, and […] of SYBR Green I supermix (Bio-Rad, USA) were mixed, which was placed in a PCR tube, followed by real-time RT-PCR in My IQ real-time PCR machine as follows: Step 1: 95°, 3 minutes; Step 2 (45 cycles): Step 2-1: 95°, 10 seconds; Step 2-2: 55-65° 45 seconds; Step 3: 95°, 1 minute; Step 4: 55°, 1 minute; Step 5 (80 cycles): 55°, 10 seconds. SYBR green I (Bio-Rad, USA) staining was performed to quantify the PCR product. SYBR I staining is the staining method using double stranded DNA binding. So, the more double stranded DNA is generated during PCR, the stronger the fluorescence intensity becomes. First, target gene and endogenous control (GAPDH) primers were added to SYBR green master mix, followed by PCR. Then, primer optimization was performed to determine a proper concentration. Synthesized cDNA and each primer were mixed (Table 4), to which SYBR master mix was added, followed by PCR.

[2] = test system: JEG-3 (human placental choriocarcinoma cell line); experiment: Oligo microarray gene expression in drug-treated JEG-3 (Cy5 treated / Cy3 control); assay type: cell-based
Experimental: Thalidomide, valproic acid, and methotrexate were treated to human placental choriocarcinoma cell line at the concentrations determined above (Inhibition concentration: the concentration that can kill approximately 30% of the total cells, that is the concentration of 70% viability, IC30). mRNA was extracted from the drug treated cell line, followed by synthesis of cDNA which was labeled with Cy5. The non-treated control was labeled with Cy3. The fluorescence labeled cDNA was hybridized with 41K (thalidomide), 44K (valproic acid, methotrexate) human whole genome oligomicroarray chips (Agilent, USA), followed by fluorescent image scanning to analyze gene expression patterns (see FIG. 4). Volcano Plot of each substance was also attached. Y axis indicates probability (generally converted by −log 10). X axis indicates differential expression, which is presented by log-ratio.
Total RNA was separated from the treated cell by using trizol reagent (Invitrogen Life Technologies, USA) according to the manufacture's instructions, followed by purification using RNeasy mini kit (Qiagen, USA). Genomic DNA was eliminated during RNA purification using RNase-free DNase set (Qiagen, USA).
30 μg of the total RNA obtained above and 2 μg (1 μg/μl) of oligo (dT) primer were mixed, followed by reaction at 65° C. for 10 minutes. Annealing was performed in ice right after the reaction. Reagents were prepared as shown in Table 1 for reverse transcription of the annealed RNA.
The total RNA separated from the control group JEG-3 cells was labeled with Cy3-dUTP (green) and the total RNA separated from the experiment group JEG-3 cells treated with thalidomide, valproic acid and methotrexate was labeled with Cy5-dUTP (red). At this time, the two samples were mixed and purified by Microcon YM-30 column (Millipore, USA).
Hybridization and washing were performed by the manufacturer's (GenoCheck, Korea) instructions. Particularly, hybridization was performed in a 62° C. oven for 12 hours. As a DNA microarray chip, 44 k whole human genome oligo microarray (Agilent, USA) was used. After washing (2 minutes with 2×SSC/0.1% SDS, three minutes with 1×SSC, 2 minutes with 0.2×SSC), the slide was dried by centrifugation at 800 rpm for 3 minutes.
Hybridization image on the slide was scanned with Genepix 4000B (Axon Instruments, USA). Fluorescence image of the chip on which non-hybridized genes had been washed out was obtained by using laser fluorescence scanner. Green fluorescence image indicates the activity of gene specifically expressed in the control group and red fluorescence image indicates the activity of gene specifically expressed in the experimental group. […] Scanned image was analyzed by using GenePix 4.1 software (Axon Instruments, USA) to calculate gene expression rate.

[3] = out of 21797 (thalidomide), 21921 (valproic acid), 24006 (methotrexate) genes
[4] = treated at IC30, up-regulated gene, (k) common gene which has no function

O=C1CCC(N2C(=O)c3ccccc3C2=O)C(=O)N1 (stereo not shown) [THA, thalidomide]
Real time PCR (Relative ratio), KIAA0310 ([1]; GenBank AB002308): 4.78 | Real time PCR (Relative ratio), ATP10B ([1]; GenBank AB018258): 4.7689 | Real time PCR (Relative ratio), TTF2 ([1]; GenBank AB209845): 1.6625 | Real time PCR (Relative ratio), TncRNA ([1]; GenBank AF001893): 5.9587 | Real time PCR (Relative ratio), C4orf19 ([1]; GenBank AK001879): 1.6143 | Real time PCR (Relative ratio), CYP19A1 ([1]; GenBank AK023571): 2.6408 | Real time PCR (Relative ratio), SLC40A1 ([1]; GenBank AK023574): 2.1558 | Real time PCR (Relative ratio), ABTB2 ([1]; GenBank AK095632): 1.4359 | Real time PCR (Relative ratio), TUBB3 ([1]; GenBank AK122757): 2.8114 | Real time PCR (Relative ratio), MGC27016 ([1]; GenBank AK125877): 2.3438 | Real time PCR (Relative ratio), GLCCI1 ([1]; GenBank AK126731): 1.5509 | Real time PCR (Relative ratio), TFCP2L4 ([1]; GenBank BC036890): 2.5111 | Real time PCR (Relative ratio), RGS2 ([1]; GenBank BC042755): 3.4255 | Real time PCR (Relative ratio), SIAT7A ([1]; GenBank BC063830): 2.5019 | Real time PCR (Relative ratio), B7-H4 ([1]; GenBank BX648021): 0.5 | Real time PCR (Relative ratio), COBLL1 ([1]; GenBank BX649112): 1.5201 | Real time PCR (Relative ratio), CGA ([1]; GenBank NM_000735): 2.9963 | Real time PCR (Relative ratio), PARP1 ([1]; GenBank NM_001618): 0.805 | Real time PCR (Relative ratio), SERPINB9 ([1]; GenBank NM_004155): 2.2852 | Real time PCR (Relative ratio), ST8SIA4 ([1]; GenBank NM_005668): 1.8635 | Real time PCR (Relative ratio), ABL1 ([1]; GenBank NM_007313): 0.6781 | Real time PCR (Relative ratio), GRLF1 ([1]; GenBank NM_024342): 0.689 | Real time PCR (Relative ratio), LGP1 ([1]; GenBank NM_032484): 0.4867 | Real time PCR (Relative ratio), NCOA3 ([1]; GenBank NM_181659): 2.9283 | Real time PCR (Relative ratio), SR140 ([1]; GenBank XM_031553): 0.6423 | Real time PCR (Relative ratio), SLC7A8 ([1]; GenBank Y18483): 1.6327 | cDNA microarray (Cy3/Cy5 ratio), KIAA0310 ([2]; GenBank AB002308): 1.94 | cDNA microarray (Cy3/Cy5 ratio), ATP10B ([2]; GenBank AB018258): 3.11 | cDNA microarray (Cy3/Cy5 ratio), TTF2 ([2]; GenBank AB209845): 1.58 | cDNA microarray (Cy3/Cy5 ratio), TncRNA ([2]; GenBank AF001893): 1.5 | cDNA microarray (Cy3/Cy5 ratio), C4orf19 ([2]; GenBank AK001879): 1.51 | cDNA microarray (Cy3/Cy5 ratio), CYP19A1 ([2]; GenBank AK023571): 2.03 | cDNA microarray (Cy3/Cy5 ratio), SLC40A1 ([2]; GenBank AK023574): 1.5 | cDNA microarray (Cy3/Cy5 ratio), ABTB2 ([2]; GenBank AK095632): 1.78 | cDNA microarray (Cy3/Cy5 ratio), TUBB3 ([2]; GenBank AK122757): 2.03 | cDNA microarray (Cy3/Cy5 ratio), MGC27016 ([2]; GenBank AK125877): 1.51 | cDNA microarray (Cy3/Cy5 ratio), GLCCI1 ([2]; GenBank AK126731): 1.56 | cDNA microarray (Cy3/Cy5 ratio), TFCP2L4 ([2]; GenBank BC036890): 1.61 | cDNA microarray (Cy3/Cy5 ratio), RGS2 ([2]; GenBank BC042755): 1.78 | cDNA microarray (Cy3/Cy5 ratio), SIAT7A ([2]; GenBank BC063830): 2.54 | cDNA microarray (Cy3/Cy5 ratio), B7-H4 ([2]; GenBank BX648021): 0.52 | cDNA microarray (Cy3/Cy5 ratio), COBLL1 ([2]; GenBank BX649112): 1.85 | cDNA microarray (Cy3/Cy5 ratio), CGA ([2]; GenBank NM_000735): 3.04 | cDNA microarray (Cy3/Cy5 ratio), PARP1 ([2]; GenBank NM_001618): 0.66 | cDNA microarray (Cy3/Cy5 ratio), SERPINB9 ([2]; GenBank NM_004155): 1.73 | cDNA microarray (Cy3/Cy5 ratio), ST8SIA4 ([2]; GenBank NM_005668): 1.69 | cDNA microarray (Cy5 treated / Cy3 control ratio), ABL1 ([2]; GenBank NM_007313): 0.65 | cDNA microarray (Cy3/Cy5 ratio), GRLF1 ([2]; GenBank NM_024342): 0.55 | cDNA microarray (Cy3/Cy5 ratio), LGP1 ([2]; GenBank NM_032484): 0.58 | cDNA microarray (Cy3/Cy5 ratio), NCOA3 ([2]; GenBank NM_181659): 1.64 | cDNA microarray (Cy3/Cy5 ratio), SR140 ([2]; GenBank XM_031553): 0.5 | cDNA microarray (Cy3/Cy5 ratio), SLC7A8 ([2]; GenBank Y18483): 1.71 | Ratio of intermediate value, IGF2 ([2]; Genbank AK074614, drug at IC30): 0.64 | Ratio of intermediate value, GRLF1 ([2]; Genbank BI494022, NM_024342, drug at IC30): 0.55 | Ratio of intermediate value, B7-H4 ([2]; Genbank BX648021, drug at IC30): 0.52 | Ratio of intermediate value, PARP1 ([2]; Genbank NM_001618, drug at IC30): 0.66 | Ratio of intermediate value, NRP1 ([2]; Genbank NM_003873, drug at IC30): 0.62 | Ratio of intermediate value, HAND1 ([2]; Genbank NM_004821, drug at IC30): 0.61 | Ratio of intermediate value, ABL1 ([2]; Genbank NM_007313, drug at IC30): 0.65 | Ratio of intermediate value, LGP1 ([2]; Genbank NM_032484, drug at IC30): 0.58 | Ratio of intermediate value, SR140 ([2]; Genbank XM_031553, drug at IC30): 0.50 | genes down-regulated (ratio of intermediate value less than 0.666) ([2]; JEG-3, drug at IC30, 48 hours): 0.34% | genes up-regulated (ratio of intermediate value more than 1.5) ([2]; JEG-3, drug at IC30, 48 hours): 0.95% | number of genes down-regulated [2, 3]: 74 | number of genes up-regulated [2, 3]: 208 | Ratio of intermediate value, gene ATP10B (AB018258, ATPase, Class V, type 10B) [2, 4]: 3.11 | Ratio of intermediate value, gene BQ186674 (cDNA clone UI-E-EJ1-ajr-f-10-0-UI, Hypothetical gene supported by AF086204) [2, 4]: 1.60 | Ratio of intermediate value, gene BX111592 (Transcribed locus, moderately similar to XP_066443.6 PREDICTED: similar to paraneoplastic antigen like 6A) [2, 4]: 2.17 | Ratio of intermediate value, gene CGA (NM_000735, Glycoprotein hormones, alpha polypeptide) [2, 4]: 3.04 | Ratio of intermediate value, gene COBLL1 (BX649112, COBL-like 1) [2, 4]: 1.85 | Ratio of intermediate value, gene CYP19A1 (AK023571, Cytochrome P450, family 19, subfamily A, polypeptide 1) [2, 4]: 2.03 | Ratio of intermediate value, gene FLJ11017 (AK001879, Hypothetical protein FLJ11017) [2, 4]: 1.51 | Ratio of intermediate value, gene GLCCI1 (AK126731, Glucocorticoid induced transcript 1) [2, 4]: 1.56 | Ratio of intermediate value, gene KIAA0310 (AB002308, KIAA0310) [2, 4]: 1.94 | Ratio of intermediate value, gene MGC27016 (AK125877, Hypothetical protein MGC27016) [2, 4]: 1.51 | Ratio of intermediate value, gene NCOA3 (NM_181659, Nuclear receptor coactivator 3) [2, 4]: 1.64 | Ratio of intermediate value, gene RGS2 (BC042755, Regulator of G-protein signalling 2, 24 kDa) [2, 4]: 1.78 | Ratio of intermediate value, gene SIAT7A (BC063830, ST6 (alpha-N-acetyl-neuraminyl-2,3-beta-galactosyl-1,3)-N-acetylgalactosaminide alpha-2,6-sialyltransferase 1) [2, 4]: 2.54 | Ratio of intermediate value, gene SIAT8D (NM_005668, ST8 alpha-N-acetyl-neuraminide alpha-2,8-sialyltransferase 4) [2, 4]: 1.69 | Ratio of intermediate value, gene SLC7A8 (Y18483, Solute carrier family 7 (cationic amino acid transporter, y+ system), member 8) [2, 4]: 1.71 | Ratio of intermediate value, gene SLC40A1 (AK023574, Solute carrier family 40 (iron-regulated transporter), member 1) [2, 4]: 1.50 | Ratio of intermediate value, gene TFCP2L4 (BC036890, Grainyhead-like 3 (Drosophila)) [2, 4]: 1.61 | Ratio of intermediate value, gene TTF2 (AB209845, Transcription termination factor, RNA polymerase II) [2, 4]: 1.58 | Ratio of intermediate value, gene TUBB3 (AK122757, Tubulin, beta 3) [2, 4]: 2.03 | Ratio of intermediate value, gene TncRNA (AF001893, Trophoblast-derived noncoding RNA) [2, 4]: 1.50
